Data: US8445689B2, “Pesticides” (Dow AgroSciences, LLC., priority 2008, dated 2013)
Like-named read-outs stand apart in the source and are kept apart here.

Legend:
[1] = tested on: Green Peach Aphid (Myzus persicae); assay: Insecticidal test for green peach aphid in foliar spray assay on cabbage; type: in vivo; settings: 72 h, read-out: Rating against green peach aphid on cabbage (foliar spray)
Experimental: Compounds 1-67 were tested against green peach aphid using procedures described hereinafter.
Insecticidal Test for Green Peach Aphid (Myzus persicae) in Foliar Spray Assay
Cabbage seedlings grown in 3-inch pots, with 2-3 small (3-5 cm) true leaves, were used as test substrate. The seedlings were infested with 20-50 green peach aphids (wingless adult and nymph) 1-2 d prior to chemical application. Four seedlings were used for each treatment. Compounds (2 mg) were dissolved in 2 mL of acetone-methanol (1:1) solvent, forming stock solutions of 1000 ppm. The stock solutions were diluted 5× with 0.025% Tween 20 in H2O to obtain a solution at 200 ppm. A hand-held Devilbiss aspirator sprayer was used for spraying a solution to both sides of cabbage leaves until runoff. Reference plants (solvent check) were sprayed with the diluent only. Treated plants were held in a holding room for 3 d at approximately 23° C. and 40% RH prior to grading. Evaluation was conducted by counting the number of live aphids per plant under a microscope. Insecticidal activity was measured by using Abbott's correction formula: Corrected % Control=100*(X−Y)/X • where X=No. of live aphids on solvent check plants • Y=No. of live aphids on treated plants

[2] = 200 ppm foliar spray on cabbage seedlings, graded after 3 d, corrected % control (Abbott)

For `CS(=O)(=NC(=O)Nc1ccc(C(F)(F)F)cc1)c1ccc(Cl)cc1` (stereo not drawn) [Compound 1, N-[(4-chlorophenyl)(methyl)oxido-λ^4-sulfanylidene]-N′-[4-(trifluoromethyl)phenyl]urea], the melting point was 131 to 134 °C.

Compound `COc1ccc(NC(=S)N=S(C)(=O)C(C)c2ccc(C(F)(F)F)nc2)cc1` (stereo not drawn) [Compound 5] has a pest or weed control at 200 ppm [1, 2] of under 80% and a melting point of 167 to 169 °C.

`CC(c1ccc(C(F)(F)F)nc1)S(C)(=O)=NC(=S)NC1CCCCC1` (stereo not drawn) [Compound 7] gave a pest or weed control at 200 ppm [1, 2] of 80 to 100% and a melting point of 170 to 172 °C.

In the case of `CC(c1ccc(C(F)(F)F)nc1)S(C)(=O)=NC(=S)NC(=O)OCC1c2ccccc2-c2ccccc21` (stereo not drawn) [Compound 9], the pest or weed control at 200 ppm ([1]; foliar) is reported as 80 to 100% and the melting point is reported as 105 to 107 °C.

`CC(C)NC(=S)N=S(C)(=O)C(C)c1ccc(C(F)(F)F)nc1` (stereo not drawn) [Compound 14] gave a pest or weed control at 200 ppm [1, 2] of 80 to 100% and a melting point of 153 to 155 °C.

`CC(c1ccc(C(F)(F)F)nc1)S(C)(=O)=NC(=S)NC1CC1` (stereo not drawn) [Compound 15] gave a pest or weed control at 200 ppm [1, 2] of 80 to 100% and a melting point of 154 to 156 °C.

In the case of `CC(c1ccc(C(F)(F)F)nc1)S(C)(=O)=NC(=S)Nc1ccc(Cl)cc1` (stereo not drawn) [Compound 20], the pest or weed control at 200 ppm [1, 2] is reported as under 80% and the melting point is reported as 181 to 183 °C.

For `CC(c1ccc(C(F)(F)F)nc1)S(C)(=O)=NC(=S)Nc1ccc(OC(F)(F)F)cc1` (stereo not drawn) [Compound 21], the pest or weed control at 200 ppm [1, 2] was under 80% and the melting point was 149 to 151 °C.

With `CC(c1ccc(C(F)(F)F)nc1)S(C)(=O)=NC(N)=S` (stereo not drawn) [Compound 22, N-(methyl(oxido){1-[6-(trifluoromethyl)pyridin-3-yl]ethyl}-λ^4-sulfanylidene)thiourea] the pest or weed control at 200 ppm [1, 2] was 80 to 100% and the melting point was 145 to 147 °C.

With `CS(=O)(Cc1ccc(C(F)(F)F)nc1)=NC(=S)NC(=O)OCC1c2ccccc2-c2ccccc21` (stereo not drawn) [Compound 28, 9H-Fluoren-9-ylmethyl[(methyl(oxido){[6-(trifluoromethyl)pyridin-3-yl]methyl}-λ^4-sulfanylidene)amino]carbonothioylcarbamate] the pest or weed control at 200 ppm ([1]; foliar) was under 80% and the melting point was 92 to 97 °C.

`CS(=O)(Cc1ccc(Cl)nc1)=NC(=S)NC(=O)OCC1c2ccccc2-c2ccccc21` (stereo not drawn) [Compound 30, 9H-Fluoren-9-ylmethyl{[[(6-chloropyridin-3-yl)methyl](methyl)oxido-λ^4-sulfanylidene]amino}carbonothioylcarbamate] gave a pest or weed control at 200 ppm ([1]; foliar) of under 80% and a melting point of 98 to 101 °C.

With `CS(=O)(Cc1ccc(Cl)nc1)=NC(N)=S` (stereo not drawn) [Compound 31, N-[[(6-chloropyridin-3-yl)methyl](methyl)oxido-λ^4-sulfanylidene]thiourea] the pest or weed control at 200 ppm [1, 2] was 80 to 100% and the melting point was 155 to 158 °C.

`Cc1ccc(C(C)S(C)(=O)=NC(N)=S)cn1` (stereo not drawn) [Compound 33, N-{methyl[1-(6-methylpyridin-3-yl)ethyl]oxido-λ^4-sulfanylidene}-thiourea] gave a pest or weed control at 200 ppm [1, 2] of 80 to 100% and a melting point of 137 to 140 °C.

Compound `CS(=O)(=N/C(N)=N/O)C(CC1CC1)c1ccc(C(F)(F)F)nc1` (stereo not drawn) [Compound 43, N-[{2-cyclopropyl-1-[6-(trifluoromethyl)pyridin-3-yl]ethyl}(methyl)oxido-λ^4-sulfanylidene]-N″-hydroxyguanidine] has a pest or weed control at 200 ppm [1, 2] of 80 to 100%.

In the case of `CC(=O)O/N=C(\N)N=S(C)(=O)C(C)c1ccc(C(F)(F)F)nc1` (stereo not drawn) [Compound 44, N″-(acetyloxy)-N-(methyl(oxido){1-[6-(trifluoromethyl)pyridin-3-yl]ethyl}-λ^4-sulfanylidene)guanidine], the pest or weed control at 200 ppm [1, 2] is reported as 80 to 100%.

Work on `CC(c1ccc(C(F)(F)F)nc1)S(C)(=O)=NC(=N)N` (stereo not drawn) [Compound 45, N-(methyl(oxido){1-[6-(trifluoromethyl)pyridin-3-yl]ethyl}-λ^4-sulfanylidene)guanidine] yielded a pest or weed control at 200 ppm [1, 2] of under 80%.

In the case of `CC(c1ccc(C(F)(F)F)nc1)S(C)(=O)=N/C(N)=N/OCc1ccc(Cl)cc1` (stereo not drawn) [Compound 46, N′-[(4-chlorobenzyl)oxy]-N-(methyl(oxido) {1-[6-(trifluoromethyl)pyridin-3-yl]ethyl}-λ^4-sulfanylidene)guanidine], the pest or weed control at 200 ppm [1, 2] is reported as 80 to 100%.

Work on `COc1ccc(CO/N=C(\N)N=S(C)(=O)C(C)c2ccc(C(F)(F)F)nc2)cc1` (stereo not drawn) [Compound 47] yielded a pest or weed control at 200 ppm [1, 2] of 80 to 100%.

`CO/N=C(\N)N=S(C)(=O)C(C)c1ccc(C(F)(F)F)nc1` (stereo not drawn) [Compound 48] gave a pest or weed control at 200 ppm [1, 2] of 80 to 100%.

For `CCO/N=C(\N)N=S(C)(=O)C(C)c1ccc(C(F)(F)F)nc1` (stereo not drawn) [Compound 49], the pest or weed control at 200 ppm [1, 2] was 80 to 100%.

Compound `CC(C)O/N=C(\N)N=S(C)(=O)C(C)c1ccc(C(F)(F)F)nc1` (stereo not drawn) [Compound 50] has a pest or weed control at 200 ppm [1, 2] of 80 to 100%.

For `CC(c1ccc(C(F)(F)F)nc1)S(C)(=O)=N/C(N)=N/OCC1CC1` (stereo not drawn) [Compound 51], the pest or weed control at 200 ppm [1, 2] was 80 to 100%.

With `CC(c1ccc(C(F)(F)F)nc1)S(C)(=O)=N/C(N)=N/OCC1CC1(F)F` (stereo not drawn) [Compound 52] the pest or weed control at 200 ppm [1, 2] was 80 to 100%.

Work on `C=CCO/N=C(\N)N=S(C)(=O)C(C)c1ccc(C(F)(F)F)nc1` (stereo not drawn) [Compound 53] yielded a pest or weed control at 200 ppm [1, 2] of 80 to 100%.

In the case of `CC(c1ccc(C(F)(F)F)nc1)S(C)(=O)=N/C(N)=N/OCCCF` (stereo not drawn) [Compound 54], the pest or weed control at 200 ppm [1, 2] is reported as 80 to 100%.

Compound `CC(c1ccc(C(F)(F)F)nc1)S(C)(=O)=N/C(N)=N/OCCCCF` (stereo not drawn) [Compound 55] has a pest or weed control at 200 ppm [1, 2] of 80 to 100%.

Compound `CC(c1ccc(C(F)(F)F)nc1)S(C)(=O)=N/C(N)=N/OCCC=C(F)F` (stereo not drawn) [Compound 56] has a pest or weed control at 200 ppm [1, 2] of 80 to 100%.

Work on `CC(c1ccc(C(F)(F)F)nc1)S(C)(=O)=N/C(=N/OCc1ccc(Cl)cc1)NCc1ccc(Cl)cc1` (stereo not drawn) [Compound 57] yielded a pest or weed control at 200 ppm [1, 2] of under 80%.

`COc1ccc(CN/C(N=S(C)(=O)C(C)c2ccc(C(F)(F)F)nc2)=N\OCc2ccc(OC)cc2)cc1` (stereo not drawn) [Compound 58] showed a pest or weed control at 200 ppm [1, 2] of 80 to 100%.

In the case of `CC(c1ccc(C(F)(F)F)nc1)S(C)(=O)=N/C(N)=N/OCCF` (stereo not drawn) [Compound 59], the pest or weed control at 200 ppm [1, 2] is reported as 80 to 100%.

`COCCO/N=C(\N)N=S(C)(=O)C(C)c1ccc(C(F)(F)F)nc1` (stereo not drawn) [Compound 60] showed a pest or weed control at 200 ppm [1, 2] of 80 to 100%.

Work on `CC(c1ccc(C(F)(F)F)nc1)S(C)(=O)=N/C(N)=N/OCC1CO1` (stereo not drawn) [Compound 61] yielded a pest or weed control at 200 ppm [1, 2] of 80 to 100%.

Work on `CN/C(N=S(C)(=O)C(C)c1ccc(C(F)(F)F)nc1)=N\OC` (stereo not drawn) [Compound 63, N″-methoxy-N-methyl-N′-(methyl(oxido){1-[6-(trifluoromethyl)pyridin-3-yl]ethyl}-λ^4-sulfanylidene)guanidine] yielded a pest or weed control at 200 ppm [1, 2] of 80 to 100%.

`CC(C)O/N=C(\N)N=S(C)(=O)C(C/C=C/Cl)c1ccc(Cl)nc1` (stereo not drawn) [Compound 64, N-[[(3E)-4-Chloro-1-(6-chloropyridin-3-yl)but-3-enyl](methyl)oxido-λ^4-sulfanylidene]-N″-isopropoxyguanidine] showed a pest or weed control at 200 ppm [1, 2] of under 80%.

With `CC(c1ccc(C(F)(F)F)nc1)S(C)(=O)=NC(=O)C(F)F` (stereo not drawn) [Compound 66, 2,2-difluoro-N-(methyl(oxido){1-[6-(trifluoromethyl)pyridin-3-yl]ethyl}-λ^4-sulfanylidene)acetamide] the pest or weed control at 200 ppm [1, 2] was 80 to 100%.

Work on `CC(c1ccc(C(F)(F)F)nc1)S(C)(=O)=NC(=O)C(C)(C)C` (stereo not drawn) [Compound 67, 2,2-dimethyl-N-(methyl(oxido){1-[6-(trifluoromethyl)pyridin-3-yl]ethyl}-λ^4-sulfanylidene)propanamide] yielded a pest or weed control at 200 ppm [1, 2] of under 80%.
